The results in this text go back to US7402698B2, “Secondary amino-and cycloamino-cycloalkanol derivatives and methods of their use” (Wyeth, priority 2003, dated 2008).

For the experiment, the target named is T1, human hNET (Homo sapiens, UniProt P23975).
T1 construct: expressed in transfected cells; host or cells: MDCK-Net6 (MDCK cells stably transfected with hNET)
Description: Norepinephrine (NE) uptake assay in MDCK-Net6 cells. In kind it is cell-based. The note with it: 30 μM test compound (stated in cell), [3H]NE uptake.

Where a name gives a salt, the structure may show the parent alone.

T1 sequence (P23975 whole entry): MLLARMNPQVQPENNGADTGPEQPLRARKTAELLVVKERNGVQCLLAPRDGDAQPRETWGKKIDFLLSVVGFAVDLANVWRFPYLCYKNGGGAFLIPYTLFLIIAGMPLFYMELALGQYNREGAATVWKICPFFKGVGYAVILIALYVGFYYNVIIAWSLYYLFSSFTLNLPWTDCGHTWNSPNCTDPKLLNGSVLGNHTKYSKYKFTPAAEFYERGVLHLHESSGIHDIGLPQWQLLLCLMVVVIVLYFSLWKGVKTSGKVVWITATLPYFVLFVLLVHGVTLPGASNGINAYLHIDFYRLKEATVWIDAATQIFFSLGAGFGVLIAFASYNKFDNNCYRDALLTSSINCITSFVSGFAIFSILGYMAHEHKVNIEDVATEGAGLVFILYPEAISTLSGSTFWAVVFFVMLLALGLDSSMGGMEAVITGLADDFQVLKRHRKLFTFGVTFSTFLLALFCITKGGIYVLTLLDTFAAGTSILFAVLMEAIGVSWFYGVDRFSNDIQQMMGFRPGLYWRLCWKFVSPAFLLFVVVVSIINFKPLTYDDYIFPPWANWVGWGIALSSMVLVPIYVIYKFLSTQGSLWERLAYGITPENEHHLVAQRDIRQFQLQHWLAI

Turning to `CN1CCC(O)(C(CN2CCOCC2)c2ccc(Cl)c(Cl)c2)CC1` (centres unmarked) [Example 114, 4-[1-(3,4-dichlorophenyl)-2-morpholin-4-ylethyl]-1-methylpiperidin-4-ol dihydrochloride], 30 µM produced 52% inhibition.
On to `CN1CCC(O)(C(CN2CCOCC2)c2cccc(Br)c2)CC1` (centres unmarked) [Example 116, 4-[1-(3-bromophenyl)-2-morpholin-4-ylethyl]-1-methylpiperidin-4-ol dihydrochloride], for which the inhibition (as a rule, the change of the read-out against control, counted positive when it falls) at 30 µM came out at 6%.
